A short description of this data set: In vitro release of curcumin by dialysis in 0.1% Tween 20 at 37° C. Type of data set: physicochemical. The conditions noted are these: within 24 hours; free curcumin 2 mg/mL in 2-propanol. As to the method: The in vitro release profiles of the drug-loaded NPs were assessed in 0.1% Tween 20 at 37° C. based on a dialysis method reported earlier with modifications. Briefly, 1 mL of the NPs was added into a dialysis tube (Float-A-lyzer G2 with a membrane MWCO 3.5-5 kD, Spectrum Laboratories, Inc., Rancho Dominguez, Calif., USA), which was subsequently placed in 250 mL of 0.1% Tween 20 at 37° C. Dialysate was replaced periodically. Samples (10 μL) were withdrawn from the dialysis tube at designated time points. The samples collected were analyzed using a UPLC-UV method and GraphPad Prism 5 was employed to plot the cumulative drug release versus time. The diffusional behaviour of curcumin (2 mg/mL in isopropanol) was also determined using the same procedure, except the dialysate was replaced with isopropanol.

Bounds are passed on as bounds.

As for `COc1cc(/C=C/C(=O)CC(=O)/C=C/c2ccc(O)c(OC)c2)ccc1O` [free curcumin, curcumin], the curcumin released is > 80%.

These data come from patent US20190029970A1, “FATTY ACID CONJUGATED NANOPARTICLES AND USES THEREOF” (The Chinese University of Hong Kong, priority 2017, published 2019).
